Legend:
Settings in all cases: incubation time: 72 h
MDA-MB-231 [1] = assay: drug sensitivity score (DSS), CellTiter-Glo (DSS (AUC-based score)); higher = stronger drug effect (viability inhibition or cytotoxicity); extreme values may be limits of the assay
How it was run: (§1)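 Breast cancer cell lines (20 µl suspension) were seeded into 384-well plates holding compound at 5 concentrations in 10-fold steps over a compound-specific 10,000-fold range, then incubated 72 h. CellTox Green fluorescence (485/520 nm) was read first, then CellTiter-Glo luminescence after 10 min at room temperature. Each plate was normalised to 0.1 % DMSO and a positive kill control. The drug sensitivity score was calculated from the area under the fitted dose-response curve.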

MDA-MB-453 [2] = assay: as above
How it was run: as §1

MFM-223 [3] = assay: as above
How it was run: as §1

HDQ-P1 [4] = assay: as above
How it was run: as §1

CAL-148 [5] = assay: as above
How it was run: as §1

HCC1937 [6] = assay: as above
How it was run: as §1

HCC1143 [7] = assay: as above
How it was run: as §1

MDA-MB-231 [8] = assay: drug sensitivity score (DSS), CellTox Green (DSS (AUC-based score)); higher = stronger drug effect (viability inhibition or cytotoxicity); extreme values may be limits of the assay
How it was run: as §1

MDA-MB-453 [9] = assay: as above
How it was run: as §1

MFM-223 [10] = assay: as above
How it was run: as §1

BT-549 = assay: as above
How it was run: as §1

DU-4475 = assay: as above
How it was run: as §1

MCF-10A = assay: as above
How it was run: as §1

BT-474 = assay: as above
How it was run: as §1

CAL-120 = assay: as above
How it was run: as §1

CAL-51 = assay: as above
How it was run: as §1

HDQ-P1 [11] = assay: as above
How it was run: as §1

CAL-148 [12] = assay: as above
How it was run: as §1

HCC1937 [13] = assay: as above
How it was run: as §1

CAL-85-1 = assay: as above
How it was run: as §1

MDA-MB-468 = assay: as above
How it was run: as §1

HCC1599 = assay: as above
How it was run: as §1

HCC1143 [14] = assay: as above
How it was run: as §1

MDA-MB-436 = assay: as above
How it was run: as §1

Hs578T = assay: as above
How it was run: as §1

| Structure (SMILES) | drug sensitivity score (MDA-MB-231 [1]) | drug sensitivity score (MDA-MB-453 [2]) | drug sensitivity score (MFM-223 [3]) | drug sensitivity score (HDQ-P1 [4]) | drug sensitivity score (CAL-148 [5]) | drug sensitivity score (HCC1937 [6]) | drug sensitivity score (HCC1143 [7]) | drug sensitivity score (MDA-MB-231 [8]) | drug sensitivity score (MDA-MB-453 [9]) | drug sensitivity score (MFM-223 [10]) | drug sensitivity score (BT-549) | drug sensitivity score (DU-4475) | drug sensitivity score (MCF-10A) | drug sensitivity score (BT-474) | drug sensitivity score (CAL-120) | drug sensitivity score (CAL-51) | drug sensitivity score (HDQ-P1 [11]) | drug sensitivity score (CAL-148 [12]) | drug sensitivity score (HCC1937 [13]) | drug sensitivity score (CAL-85-1) | drug sensitivity score (MDA-MB-468) | drug sensitivity score (HCC1599) | drug sensitivity score (HCC1143 [14]) | drug sensitivity score (MDA-MB-436) | drug sensitivity score (Hs578T) |
| --- | --- | --- | --- | --- | --- | --- | --- | --- | --- | --- | --- | --- | --- | --- | --- | --- | --- | --- | --- | --- | --- | --- | --- | --- | --- |
| NC(=O)NO [Hydroxyurea] | 0 | 0 | 0 | 0 | 0 | 0 | 0 | 0 | 0 | 0 | 0 | 0 | 0 | 0 | 0 | 8.77 | 0 | 0 | 0 | 0 | 0 | 0 | 0 |  |  |
| O=NN(CCCl)C(=O)NC1CCCCC1 [Lomustine] | 0 | 0 | 0 | 0 | 0 | 0 | 0 |  | 0 | 0 | 0 | 0 | 0 | 0 | 0 | 0 | 0 | 0 | 0 | 0 | 0 | 0 | 0 | 0 | 0 |
| O=C(O)CC[C@H]1CC[C@@](c2cc(F)ccc2F)(S(=O)(=O)c2ccc(Cl)cc2)CC1 [MK-0752] | 0 | 0 | 0 | 0 | 0 | 0 | 0 | 0 | 1.23 | 0 | 0 | 0 | 0 | 0 | 0 | 0 | 0 |  | 0 | 1.74 | 0 | 0 | 0 | 0 | 0 |
| NC(=O)c1cccc2cn(-c3ccc([C@@H]4CCCNC4)cc3)nc12 [MK-4827] | 0 | 0 | 0 | 0 | 0.954 | 0 | 0 | 0 | 0 | 0 | 0 | 0 | 0 | 0 | 0 | 3.35 | 0 | 0 |  | 2.02 | 0 | 0 | 0 | 0 | 0 |
| O=C(c1cc(Cc2n[nH]c(=O)c3ccccc23)ccc1F)N1CCN(C(=O)C2CC2)CC1 [Olaparib] | 0 | 0 | 0 | 0 | 2.94 | 0 | 0 | 1.54 | 0 | 0 | 0 | 0 | 0 | 0 | 0 | 3.38 |  | 0 | 0 | 0 | 0 | 0 | 0 | 8.45 | 0 |
| C[C@]12C=CC(=O)C=C1CC[C@@H]1[C@@H]2C(=O)C[C@@]2(C)[C@H]1CC[C@]2(O)C(=O)CO [Prednisone] | 0 | 0 | 0 | 0 | 0 | 0 | 0 | 0 | 0 | 0 | 0 | 0 | 0 | 0 | 0.113 | 0 | 0 | 0 | 0 | 0 | 0 | 0 | 0 | 0 |  |
| CN1CCN(c2nc(C3=C(c4c[nH]c5ccccc45)C(=O)NC3=O)c3ccccc3n2)CC1 [Sotrastaurin] | 0 | 0 | 0 | 0.186 | 0 | 0 | 0 | 0 | 0 | 0 | 0 | 0 | 0 | 0 | 0 | 0 | 0 |  | 0 | 0 | 0 | 0 | 0 | 0 | 0 |
| C[C@@H](C(=O)O)c1ccc(-c2ccccc2)c(F)c1 [Tarenflurbil] | 0 | 0 | 0 | 0 | 0 | 0 | 0 | 0 | 0 | 0 | 0 | 0 | 0.986 | 0.00754 | 0 | 0 | 0 | 0 | 0 | 0 | 0 | 0 | 0 | 0 |  |

— the supplement of paper PMC4862054
